Laboratory results: ChEMBL document CHEMBL5370531, “Design, synthesis and pharmacological evaluation of 2,3-dihydrobenzofuran IRAK4 inhibitors for the treatment of diffuse large B-cell lymphoma” (Eur J Med Chem, 2023)
Activity calls are given as the source filed them. The calls are words filed in the database; no cut-off is given here.

Legend:
OCI-Ly10 [1] = experiment: Synergistic antiproliferative activity against human OCILY10 cells harboring MYD88 L265P assessed as inhibition of cell growth at 100 nM incubated for 72 hrs in presence of BTK inhibitor, ibrutinib at 3.1 nM by CCK-8 assay (reference value: 21.36 %); type: functional
[2] = Cytotoxicity against human GM00637 cells assessed as inhibition of cell proliferation incubated for 72 hrs by CCK-8 assay; type: toxicity, cell-based
[3] = target: Platelet-derived growth factor receptor alpha (Homo sapiens) (UniProt P16234); experiment: Inhibition of PDGFR-alpha (unknown origin) at 100 nM incubated for 1 hr in presence of ATP by ELISA analysis
[4] = target: Fibroblast growth factor receptor 4 (Homo sapiens) (UniProt P22455); experiment: Inhibition of FGFR4 (unknown origin) at 100 nM incubated for 1 hr in presence of ATP by ELISA analysis
[5] = target: Focal adhesion kinase 1 (Homo sapiens) (UniProt Q05397); experiment: Inhibition of FAK (unknown origin) at 100 nM incubated for 1 hr in presence of ATP by ELISA analysis
[6] = target: Macrophage colony-stimulating factor 1 receptor (Homo sapiens) (UniProt P07333); experiment: Inhibition of CSF1R (unknown origin) at 100 nM incubated for 1 hr in presence of ATP by ELISA analysis
[7] = target: Fibroblast growth factor receptor 2 (Homo sapiens) (UniProt P21802); experiment: Inhibition of FGFR2 (unknown origin) at 100 nM incubated for 1 hr in presence of ATP by ELISA analysis
[8] = target: Tyrosine-protein kinase BTK (Homo sapiens) (UniProt Q06187); experiment: Inhibition of BTK (unknown origin) at 100 nM incubated for 1 hr in presence of ATP by ELISA analysis
[9] = target: Proto-oncogene tyrosine-protein kinase Src (Homo sapiens) (UniProt P12931); experiment: Inhibition of SRC (unknown origin) at 100 nM incubated for 1 hr in presence of ATP by ELISA analysis
OCI-Ly10 [10] = experiment: Induction of apoptosis in human OCILY10 cells assessed as late apoptotic cells at 0.5 uM incubated for 24 hrs by Annexin V-FITC/PI staining based flow cytometry (reference value: 3.71 %); type: functional
OCI-Ly10 [11] = experiment: Induction of apoptosis in human OCILY10 cells assessed as early apoptotic cells at 0.1 uM incubated for 48 hrs by Annexin V-FITC/PI staining based flow cytometry (reference value: 5.4 %); type: functional
OCI-Ly10 [12] = experiment: Induction of apoptosis in human OCILY10 cells assessed as early apoptotic cells at 0.2 uM incubated for 48 hrs by Annexin V-FITC/PI staining based flow cytometry (reference value: 5.4 %); type: functional
OCI-Ly10 [13] = experiment: Induction of apoptosis in human OCILY10 cells assessed as early apoptotic cells at 0.5 uM incubated for 48 hrs by Annexin V-FITC/PI staining based flow cytometry (reference value: 5.4 %); type: functional
OCI-Ly10 [14] = experiment: Induction of apoptosis in human OCILY10 cells assessed as late apoptotic cells at 1 uM incubated for 48 hrs by Annexin V-FITC/PI staining based flow cytometry (reference value: 3.54 %); type: functional
OCI-Ly10 [15] = experiment: Induction of apoptosis in human OCILY10 cells at 1 uM incubated for 24 hrs by Annexin V-FITC/PI staining based flow cytometry; type: functional
OCI-Ly10 [16] = experiment: Induction of apoptosis in human OCILY10 cells at 0.5 uM incubated for 48 hrs by Annexin V-FITC/PI staining based flow cytometry; type: functional
OCI-Ly10 [17] = experiment: Induction of apoptosis in human OCILY10 cells at 1 uM incubated for 48 hrs by Annexin V-FITC/PI staining based flow cytometry; type: functional
OCI-Ly10 [18] = experiment: Induction of apoptosis in human OCILY10 cells assessed as upregulation of caspase-3 cleavage at 0.1 to 1 uM incubated for 24 hrs by immunoblotting analysis; type: functional, cell-based; conditions: dose 0.1-1 µM
OCI-Ly10 [19] = experiment: Synergistic antiproliferative activity against human OCILY10 cells harboring MYD88 L265P assessed as inhibition of cell growth at 100 nM incubated for 72 hrs in presence of BTK inhibitor, ibrutinib at 1.6 nM by CCK-8 assay (reference value: 21.36 %); type: functional
OCI-Ly10 [20] = experiment: Synergistic antiproliferative activity against human OCILY10 cells harboring MYD88 L265P assessed as inhibition of cell growth at 800 nM incubated for 72 hrs in presence of BTK inhibitor, ibrutinib at 1.6 nM by CCK-8 assay (reference value: 54.76 %); type: functional
OCI-Ly10 [21] = experiment: Synergistic antiproliferative activity against human OCILY10 cells harboring MYD88 L265P assessed as inhibition of cell growth at 1600 nM incubated for 72 hrs in presence of BTK inhibitor, ibrutinib at 3.1 nM by CCK-8 assay (reference value: 64.69 %); type: functional
OCI-Ly10 [22] = experiment: Synergistic antiproliferative activity against human OCILY10 cells harboring MYD88 L265P assessed as inhibition of cell growth at 400 nM incubated for 72 hrs in presence of BTK inhibitor, ibrutinib at 12.5 nM by CCK-8 assay (reference value: 34.46 %); type: functional
OCI-Ly10 [23] = experiment: Synergistic antiproliferative activity against human OCILY10 cells harboring MYD88 L265P assessed as inhibition of cell growth at 1600 nM incubated for 72 hrs in presence of BTK inhibitor, ibrutinib at 12.5 nM by CCK-8 assay (reference value: 64.69 %); type: functional
OCI-Ly10 [24] = experiment: Synergistic antiproliferative activity against human OCILY10 cells harboring MYD88 L265P assessed as inhibition of cell growth at 100 nM incubated for 72 hrs in presence of BTK inhibitor, ibrutinib at 25 nM by CCK-8 assay (reference value: 21.36 %); type: functional
OCI-Ly10 [25] = experiment: Synergistic antiproliferative activity against human OCILY10 cells harboring MYD88 L265P assessed as inhibition of cell growth at 200 nM incubated for 72 hrs in presence of BTK inhibitor, ibrutinib at 25 nM by CCK-8 assay (reference value: 26.07 %); type: functional
OCI-Ly10 [26] = experiment: Synergistic antiproliferative activity against human OCILY10 cells harboring MYD88 L265P assessed as inhibition of cell growth at 1600 nM incubated for 72 hrs in presence of BTK inhibitor, ibrutinib at 25 nM by CCK-8 assay (reference value: 64.69 %); type: functional
OCI-Ly10 [27] = experiment: Induction of apoptosis in human OCILY10 cells harboring MYD88 L265P assessed as early apoptotic cells at 0.2 uM incubated for 48 hrs in presence of BTK inhibitor, ibrutinib by Annexin V-FITC/PI staining based flow cytometry (reference value: 6.76 %); type: functional
OCI-Ly10 [28] = experiment: Induction of apoptosis in human OCILY10 cells harboring MYD88 L265P assessed as late apoptotic cells at 0.1 uM incubated for 48 hrs in presence of BTK inhibitor, ibrutinib by Annexin V-FITC/PI staining based flow cytometry (reference value: 6.59 %); type: functional
OCI-Ly10 [29] = experiment: Induction of apoptosis in human OCILY10 cells harboring MYD88 L265P assessed as upregulation of caspase-3 cleavage at 0.1 uM in presence of BTK inhibitor, ibrutinib by immunoblotting analysis; type: functional, cell-based

Fibroblast growth factor receptor 2 (Homo sapiens), sequence (P21802 22-821 limits assumed): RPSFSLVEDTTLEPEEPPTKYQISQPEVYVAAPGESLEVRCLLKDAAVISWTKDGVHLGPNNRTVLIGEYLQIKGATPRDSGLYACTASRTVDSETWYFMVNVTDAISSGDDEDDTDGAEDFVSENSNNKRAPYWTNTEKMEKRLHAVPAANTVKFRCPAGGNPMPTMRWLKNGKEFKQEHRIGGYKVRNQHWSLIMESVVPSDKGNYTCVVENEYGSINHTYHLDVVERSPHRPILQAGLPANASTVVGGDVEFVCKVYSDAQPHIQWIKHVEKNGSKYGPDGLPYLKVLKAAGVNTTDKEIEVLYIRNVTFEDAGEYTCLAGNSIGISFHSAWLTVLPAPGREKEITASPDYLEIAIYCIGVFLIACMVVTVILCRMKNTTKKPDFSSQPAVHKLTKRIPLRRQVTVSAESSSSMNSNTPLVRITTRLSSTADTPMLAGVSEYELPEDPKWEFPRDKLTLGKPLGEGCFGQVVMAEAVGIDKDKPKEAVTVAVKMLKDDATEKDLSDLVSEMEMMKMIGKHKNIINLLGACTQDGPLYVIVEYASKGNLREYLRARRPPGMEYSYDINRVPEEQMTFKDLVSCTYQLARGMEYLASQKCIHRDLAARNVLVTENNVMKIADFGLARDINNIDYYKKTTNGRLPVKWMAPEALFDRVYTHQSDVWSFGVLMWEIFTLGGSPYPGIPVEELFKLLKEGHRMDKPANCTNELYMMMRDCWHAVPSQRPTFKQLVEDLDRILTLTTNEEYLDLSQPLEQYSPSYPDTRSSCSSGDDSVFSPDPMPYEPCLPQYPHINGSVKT
Macrophage colony-stimulating factor 1 receptor (Homo sapiens), sequence (P07333 whole entry): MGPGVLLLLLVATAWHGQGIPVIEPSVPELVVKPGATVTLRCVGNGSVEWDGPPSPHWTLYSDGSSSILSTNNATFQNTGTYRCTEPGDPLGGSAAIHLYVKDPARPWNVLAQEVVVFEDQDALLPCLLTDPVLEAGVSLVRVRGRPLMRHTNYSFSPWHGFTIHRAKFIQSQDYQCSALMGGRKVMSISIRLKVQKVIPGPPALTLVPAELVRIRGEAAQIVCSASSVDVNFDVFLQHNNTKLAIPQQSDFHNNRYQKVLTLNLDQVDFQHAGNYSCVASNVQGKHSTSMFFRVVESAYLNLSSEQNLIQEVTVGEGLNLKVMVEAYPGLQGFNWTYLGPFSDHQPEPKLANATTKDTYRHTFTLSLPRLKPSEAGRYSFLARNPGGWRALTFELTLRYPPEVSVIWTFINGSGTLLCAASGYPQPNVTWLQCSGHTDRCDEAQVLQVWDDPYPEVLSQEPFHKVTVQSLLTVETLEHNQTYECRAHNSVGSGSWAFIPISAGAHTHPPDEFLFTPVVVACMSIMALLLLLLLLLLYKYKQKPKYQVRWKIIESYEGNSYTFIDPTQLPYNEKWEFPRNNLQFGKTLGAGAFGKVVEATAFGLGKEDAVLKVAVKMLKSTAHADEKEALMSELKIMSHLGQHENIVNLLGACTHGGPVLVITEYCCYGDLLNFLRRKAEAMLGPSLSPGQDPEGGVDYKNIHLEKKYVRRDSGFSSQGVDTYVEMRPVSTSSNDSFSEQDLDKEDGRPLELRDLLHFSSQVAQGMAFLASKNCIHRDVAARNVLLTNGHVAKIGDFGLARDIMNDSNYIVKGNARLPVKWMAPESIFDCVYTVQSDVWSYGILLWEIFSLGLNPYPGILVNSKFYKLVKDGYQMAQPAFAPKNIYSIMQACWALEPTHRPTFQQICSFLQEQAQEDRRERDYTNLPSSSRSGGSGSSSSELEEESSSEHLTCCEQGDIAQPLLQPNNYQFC
Fibroblast growth factor receptor 4 (Homo sapiens), sequence (P22455 22-802 limits assumed): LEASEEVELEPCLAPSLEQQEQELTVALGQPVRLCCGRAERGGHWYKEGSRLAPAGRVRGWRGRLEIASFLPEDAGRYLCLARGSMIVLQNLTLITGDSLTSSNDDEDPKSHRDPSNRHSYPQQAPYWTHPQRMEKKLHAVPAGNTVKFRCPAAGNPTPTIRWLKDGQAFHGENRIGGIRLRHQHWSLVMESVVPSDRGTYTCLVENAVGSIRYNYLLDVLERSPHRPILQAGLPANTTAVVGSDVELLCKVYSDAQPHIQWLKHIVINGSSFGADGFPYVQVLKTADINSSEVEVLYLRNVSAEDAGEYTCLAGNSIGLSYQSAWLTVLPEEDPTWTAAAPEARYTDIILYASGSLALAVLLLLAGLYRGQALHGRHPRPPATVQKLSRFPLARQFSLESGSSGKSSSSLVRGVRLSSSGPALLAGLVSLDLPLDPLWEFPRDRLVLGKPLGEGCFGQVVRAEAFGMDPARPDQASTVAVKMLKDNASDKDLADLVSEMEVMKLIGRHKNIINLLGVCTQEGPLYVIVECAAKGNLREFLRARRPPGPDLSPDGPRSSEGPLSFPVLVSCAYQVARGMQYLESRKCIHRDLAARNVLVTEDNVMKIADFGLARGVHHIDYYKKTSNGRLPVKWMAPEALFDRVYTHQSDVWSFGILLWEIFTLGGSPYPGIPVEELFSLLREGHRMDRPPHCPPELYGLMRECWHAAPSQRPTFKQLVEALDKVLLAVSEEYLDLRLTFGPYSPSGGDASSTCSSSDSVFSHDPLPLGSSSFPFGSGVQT
Tyrosine-protein kinase BTK (Homo sapiens), sequence (Q06187 whole entry): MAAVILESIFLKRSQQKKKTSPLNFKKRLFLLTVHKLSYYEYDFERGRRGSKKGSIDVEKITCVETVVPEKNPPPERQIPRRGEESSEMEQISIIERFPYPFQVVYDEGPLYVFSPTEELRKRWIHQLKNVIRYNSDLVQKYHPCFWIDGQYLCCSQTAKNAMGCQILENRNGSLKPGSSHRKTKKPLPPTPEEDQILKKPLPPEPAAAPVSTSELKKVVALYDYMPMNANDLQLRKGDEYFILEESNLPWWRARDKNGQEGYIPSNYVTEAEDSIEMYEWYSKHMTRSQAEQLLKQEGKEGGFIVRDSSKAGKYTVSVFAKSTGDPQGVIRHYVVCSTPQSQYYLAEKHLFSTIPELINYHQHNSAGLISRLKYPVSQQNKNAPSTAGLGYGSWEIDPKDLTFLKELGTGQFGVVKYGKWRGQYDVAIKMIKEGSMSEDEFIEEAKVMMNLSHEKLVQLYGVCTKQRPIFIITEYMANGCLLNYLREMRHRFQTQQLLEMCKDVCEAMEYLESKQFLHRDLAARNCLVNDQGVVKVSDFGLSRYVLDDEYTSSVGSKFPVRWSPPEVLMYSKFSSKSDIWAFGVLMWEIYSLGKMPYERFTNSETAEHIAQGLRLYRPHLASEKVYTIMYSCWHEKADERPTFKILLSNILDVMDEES
Focal adhesion kinase 1 (Homo sapiens), sequence (Q05397 2-1052 limits assumed): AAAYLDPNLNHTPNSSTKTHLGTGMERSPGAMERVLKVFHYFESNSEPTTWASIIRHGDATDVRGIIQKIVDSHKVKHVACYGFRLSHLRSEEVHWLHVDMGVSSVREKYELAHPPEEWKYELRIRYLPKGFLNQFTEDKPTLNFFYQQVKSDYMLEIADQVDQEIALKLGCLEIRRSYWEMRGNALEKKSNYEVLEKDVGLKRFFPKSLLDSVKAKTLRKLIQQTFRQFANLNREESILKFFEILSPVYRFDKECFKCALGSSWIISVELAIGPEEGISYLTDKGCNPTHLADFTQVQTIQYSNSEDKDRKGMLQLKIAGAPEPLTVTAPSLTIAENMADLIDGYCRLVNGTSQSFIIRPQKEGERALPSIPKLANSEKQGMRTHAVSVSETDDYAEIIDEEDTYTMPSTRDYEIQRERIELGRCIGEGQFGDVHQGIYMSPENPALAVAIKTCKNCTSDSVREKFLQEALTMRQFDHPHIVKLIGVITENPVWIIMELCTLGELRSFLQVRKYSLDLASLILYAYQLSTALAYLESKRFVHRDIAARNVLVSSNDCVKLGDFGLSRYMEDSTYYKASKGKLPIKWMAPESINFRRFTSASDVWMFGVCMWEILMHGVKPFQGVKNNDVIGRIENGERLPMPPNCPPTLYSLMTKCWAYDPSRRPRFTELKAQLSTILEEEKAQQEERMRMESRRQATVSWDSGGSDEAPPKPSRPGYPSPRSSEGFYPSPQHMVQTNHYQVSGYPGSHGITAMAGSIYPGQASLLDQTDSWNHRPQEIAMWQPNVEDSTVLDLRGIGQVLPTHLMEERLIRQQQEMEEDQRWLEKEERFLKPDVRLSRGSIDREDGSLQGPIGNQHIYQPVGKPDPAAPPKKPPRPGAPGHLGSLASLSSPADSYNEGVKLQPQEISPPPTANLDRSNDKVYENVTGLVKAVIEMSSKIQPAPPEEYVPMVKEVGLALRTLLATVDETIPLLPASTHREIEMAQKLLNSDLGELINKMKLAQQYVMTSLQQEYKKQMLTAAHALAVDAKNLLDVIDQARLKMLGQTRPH
Proto-oncogene tyrosine-protein kinase Src (Homo sapiens), sequence (P12931 2-536 limits assumed): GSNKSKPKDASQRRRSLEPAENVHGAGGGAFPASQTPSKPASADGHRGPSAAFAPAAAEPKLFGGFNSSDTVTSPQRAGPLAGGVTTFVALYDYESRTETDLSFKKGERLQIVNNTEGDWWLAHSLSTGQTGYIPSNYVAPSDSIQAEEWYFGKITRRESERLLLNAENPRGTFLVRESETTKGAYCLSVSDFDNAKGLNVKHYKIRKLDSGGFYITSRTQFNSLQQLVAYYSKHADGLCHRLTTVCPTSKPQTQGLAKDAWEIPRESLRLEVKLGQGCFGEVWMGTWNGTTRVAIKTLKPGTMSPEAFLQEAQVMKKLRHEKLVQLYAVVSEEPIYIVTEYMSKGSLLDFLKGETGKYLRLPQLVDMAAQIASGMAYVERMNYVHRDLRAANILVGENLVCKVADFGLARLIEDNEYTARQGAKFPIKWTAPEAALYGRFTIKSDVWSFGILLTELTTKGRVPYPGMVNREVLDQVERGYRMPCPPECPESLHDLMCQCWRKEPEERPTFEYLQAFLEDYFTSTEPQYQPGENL

Structure (SMILES): Cn1cc(-c2cc3c(cc2NC(=O)c2coc(-c4ccnc(N)c4)n2)CC(C)(C)O3)cn1
- inhibition at 0.1 µM (OCI-Ly10 [1]): 21.8%
- IC50 at 72 h [2]: 1520 nM
- inhibition [3]: inactive
- inhibition [4]: inactive
- inhibition [5]: inactive
- inhibition [6]: inactive
- inhibition [7]: inactive
- inhibition [8]: inactive
- inhibition [9]: inactive
- Activity (OCI-Ly10 [10]): 25.2%
- Activity (OCI-Ly10 [11]): 12.9%
- Activity (OCI-Ly10 [12]): 21.2%
- Activity (OCI-Ly10 [13]): 45.7%
- Activity (OCI-Ly10 [14]): 37.7%
- Activity (OCI-Ly10 [15]): 66.8%
- Activity (OCI-Ly10 [16]): 67.2%
- Activity (OCI-Ly10 [17]): 92.3%
- Activity (OCI-Ly10 [18]): Active
- inhibition at 0.1 µM (OCI-Ly10 [19]): 23.7%
- inhibition at 0.8 µM (OCI-Ly10 [20]): 58.1%
- inhibition at 1.6 µM (OCI-Ly10 [21]): 77.3%
- inhibition at 0.4 µM (OCI-Ly10 [22]): 75.7%
- inhibition at 1.6 µM (OCI-Ly10 [23]): 88.7%
- inhibition at 0.1 µM (OCI-Ly10 [24]): 72.2%
- inhibition at 0.2 µM (OCI-Ly10 [25]): 75.4%
- inhibition at 1.6 µM (OCI-Ly10 [26]): 89.6%
- Activity (OCI-Ly10 [27]): 19.6%
- Activity (OCI-Ly10 [28]): 22%
- Activity (OCI-Ly10 [29]): Active
